Data taken from paper PMC6181586 (Chemical communications (Cambridge, England), 2018).

Target: CatB (Homo sapiens, UniProt P07858)
Assay: SDS-PAGE of adduct formation with CatB
Format: biochemical
Conditions: co-incubation with conjugates and CatB, SDS-PAGE autoradiography

SMILES: CCCNC(=O)[C@H]1O[C@@H]1C(=O)N[C@H](C(=O)N1CCC[C@H]1C(=O)O)[C@@H](C)CC [CA-074]
- Effect of co-incubation on CatB adducts of the conjugates: eliminated observable CatB adducts
